Measured values reported in article PMC7316778 (Nature Communications, 2020).
“And” between values parts separate entries of the source, which are not always exact repeats. Equal values may be shown once. Read-outs that look alike come from different tables or passages of the source.

Experiments:
Experiment in all cases: SelectScreen kinase assay
KDR (VEGFR2) [1] = settings: IC50 on that kinase divided by IC50 on FES^S700C
Description: (§1) Selectivity profiling assays were performed by the Invitrogen SelectScreen™ Services. […] The concentration of ATP was selected to be equal to the KM, unless indicated otherwise.

KDR (VEGFR2) [2] = molecular target: KDR (VEGFR2) (Homo sapiens, UniProt P35968)
KDR (VEGFR2) (Homo sapiens, UniProt P35968), sequence (P35968 20-1356, species assumed): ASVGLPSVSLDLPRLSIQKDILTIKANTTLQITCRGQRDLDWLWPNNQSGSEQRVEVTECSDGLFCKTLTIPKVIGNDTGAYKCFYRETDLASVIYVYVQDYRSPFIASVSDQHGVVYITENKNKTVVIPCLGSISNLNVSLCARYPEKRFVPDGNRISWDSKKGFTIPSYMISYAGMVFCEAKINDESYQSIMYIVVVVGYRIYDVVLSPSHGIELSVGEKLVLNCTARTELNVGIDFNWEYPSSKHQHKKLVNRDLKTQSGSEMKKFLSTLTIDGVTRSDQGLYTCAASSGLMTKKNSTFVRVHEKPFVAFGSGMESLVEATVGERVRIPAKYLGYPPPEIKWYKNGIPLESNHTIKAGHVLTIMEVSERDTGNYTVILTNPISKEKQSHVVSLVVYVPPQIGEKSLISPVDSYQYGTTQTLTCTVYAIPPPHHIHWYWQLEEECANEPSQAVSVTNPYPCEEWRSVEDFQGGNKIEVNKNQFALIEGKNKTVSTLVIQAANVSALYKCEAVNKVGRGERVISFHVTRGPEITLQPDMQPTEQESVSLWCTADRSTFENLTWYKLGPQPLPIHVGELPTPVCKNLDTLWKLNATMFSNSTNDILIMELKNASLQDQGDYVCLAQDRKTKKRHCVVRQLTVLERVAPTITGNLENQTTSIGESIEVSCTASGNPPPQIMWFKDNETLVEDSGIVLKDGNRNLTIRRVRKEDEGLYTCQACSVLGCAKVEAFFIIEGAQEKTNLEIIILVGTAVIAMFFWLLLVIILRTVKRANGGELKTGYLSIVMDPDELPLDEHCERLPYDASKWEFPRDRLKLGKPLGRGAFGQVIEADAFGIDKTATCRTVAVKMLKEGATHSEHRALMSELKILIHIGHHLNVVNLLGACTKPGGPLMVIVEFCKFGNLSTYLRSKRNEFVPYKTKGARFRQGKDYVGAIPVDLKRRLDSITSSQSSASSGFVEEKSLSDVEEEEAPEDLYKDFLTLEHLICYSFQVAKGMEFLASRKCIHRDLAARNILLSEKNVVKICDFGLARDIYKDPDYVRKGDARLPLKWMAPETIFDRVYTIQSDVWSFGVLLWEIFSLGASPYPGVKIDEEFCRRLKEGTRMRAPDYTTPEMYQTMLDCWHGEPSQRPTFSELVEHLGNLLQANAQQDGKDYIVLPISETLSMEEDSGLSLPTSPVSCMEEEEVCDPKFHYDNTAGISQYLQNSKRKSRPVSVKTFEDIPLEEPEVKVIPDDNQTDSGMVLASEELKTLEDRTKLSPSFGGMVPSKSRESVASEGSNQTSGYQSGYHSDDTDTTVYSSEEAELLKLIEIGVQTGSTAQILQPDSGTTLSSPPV
Description: as §1

IKBKB (IKK beta) = IKBKB (IKK beta) (Homo sapiens, UniProt O14920)
Description: as §1

MST4 = MST4 (Homo sapiens, UniProt Q9P289)
MST4, sequence (Q9P289 whole entry): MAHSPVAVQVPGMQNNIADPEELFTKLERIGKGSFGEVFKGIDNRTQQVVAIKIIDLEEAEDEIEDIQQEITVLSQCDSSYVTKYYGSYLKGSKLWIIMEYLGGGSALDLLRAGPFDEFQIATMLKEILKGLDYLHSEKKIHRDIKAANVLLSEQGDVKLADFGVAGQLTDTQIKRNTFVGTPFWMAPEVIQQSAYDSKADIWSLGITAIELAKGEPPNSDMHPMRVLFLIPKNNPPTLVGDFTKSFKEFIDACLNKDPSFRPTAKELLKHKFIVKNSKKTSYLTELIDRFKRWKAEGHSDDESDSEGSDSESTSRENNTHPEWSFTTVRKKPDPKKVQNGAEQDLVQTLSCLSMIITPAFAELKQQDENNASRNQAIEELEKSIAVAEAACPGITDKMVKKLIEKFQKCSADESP
Description: as §1

CDK16 (PCTK1)/cyclin Y = CDK16 (PCTK1)/cyclin Y (Homo sapiens, UniProt Q00536)
CDK16 (PCTK1)/cyclin Y, sequence (Q00536 whole entry): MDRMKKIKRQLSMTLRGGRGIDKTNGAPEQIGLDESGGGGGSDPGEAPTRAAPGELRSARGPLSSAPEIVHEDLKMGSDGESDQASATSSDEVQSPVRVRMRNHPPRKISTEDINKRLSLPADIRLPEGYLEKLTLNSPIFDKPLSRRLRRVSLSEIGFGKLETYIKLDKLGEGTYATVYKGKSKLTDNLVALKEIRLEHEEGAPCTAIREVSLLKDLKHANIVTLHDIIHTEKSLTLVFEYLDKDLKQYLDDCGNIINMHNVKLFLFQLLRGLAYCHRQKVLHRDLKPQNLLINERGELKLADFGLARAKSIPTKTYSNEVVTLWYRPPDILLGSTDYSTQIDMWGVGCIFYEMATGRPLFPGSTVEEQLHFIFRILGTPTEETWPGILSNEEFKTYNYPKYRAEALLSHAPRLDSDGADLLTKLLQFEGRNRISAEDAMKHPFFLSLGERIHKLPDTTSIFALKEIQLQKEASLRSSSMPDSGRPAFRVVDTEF
CDK16 (PCTK1)/cyclin Y, sequence (Q8ND76 whole entry partner): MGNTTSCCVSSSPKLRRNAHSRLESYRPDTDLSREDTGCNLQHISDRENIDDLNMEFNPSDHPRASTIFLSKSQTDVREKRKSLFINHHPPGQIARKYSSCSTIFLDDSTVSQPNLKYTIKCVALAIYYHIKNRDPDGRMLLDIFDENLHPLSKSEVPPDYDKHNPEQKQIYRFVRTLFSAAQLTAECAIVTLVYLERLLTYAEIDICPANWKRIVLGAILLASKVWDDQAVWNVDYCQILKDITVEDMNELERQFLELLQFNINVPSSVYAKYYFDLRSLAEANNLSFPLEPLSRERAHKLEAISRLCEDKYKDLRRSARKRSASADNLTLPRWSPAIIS
Description: as §1

ACVRL1 (ALK1) = ACVRL1 (ALK1) (Homo sapiens, UniProt P37023)
Description: as §1

ADCK3 = ADCK3 (Homo sapiens, UniProt Q8NI60)
Description: as §1

CDK11/cyclin C = CDK11/cyclin C (Homo sapiens, UniProt Q9BWU1); settings: for Inhibition at 1 µM (%): CDK11/cyclin C, LanthaScreen Binding
CDK11/cyclin C, sequence (Q9BWU1 whole entry): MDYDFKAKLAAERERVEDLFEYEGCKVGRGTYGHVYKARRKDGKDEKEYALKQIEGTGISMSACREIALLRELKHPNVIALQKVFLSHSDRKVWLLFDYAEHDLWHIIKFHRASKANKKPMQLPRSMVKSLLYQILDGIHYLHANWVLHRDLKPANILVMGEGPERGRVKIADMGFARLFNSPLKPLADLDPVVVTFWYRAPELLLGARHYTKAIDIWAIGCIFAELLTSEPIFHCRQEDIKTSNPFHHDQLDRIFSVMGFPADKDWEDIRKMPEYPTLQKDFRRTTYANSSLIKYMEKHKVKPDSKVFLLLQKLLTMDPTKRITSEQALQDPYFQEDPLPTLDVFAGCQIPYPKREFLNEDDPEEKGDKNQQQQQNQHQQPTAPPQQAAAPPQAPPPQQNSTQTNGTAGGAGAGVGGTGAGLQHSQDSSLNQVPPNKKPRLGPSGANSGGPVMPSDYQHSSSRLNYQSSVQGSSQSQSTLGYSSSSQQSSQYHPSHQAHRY
CDK11/cyclin C, sequence (P24863 whole entry partner): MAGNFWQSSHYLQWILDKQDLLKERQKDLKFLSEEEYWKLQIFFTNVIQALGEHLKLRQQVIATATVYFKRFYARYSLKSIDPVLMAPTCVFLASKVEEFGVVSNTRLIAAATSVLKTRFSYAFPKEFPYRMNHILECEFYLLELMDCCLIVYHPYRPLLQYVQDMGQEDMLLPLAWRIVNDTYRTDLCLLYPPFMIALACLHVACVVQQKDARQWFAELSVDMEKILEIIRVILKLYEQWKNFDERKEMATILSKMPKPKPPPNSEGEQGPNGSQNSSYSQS
Description: as §1

STK17A (DRAK1) = molecular target: T1, STK17A (DRAK1) (Homo sapiens, UniProt Q9UEE5)
T1 sequence (Q9UEE5 1-414): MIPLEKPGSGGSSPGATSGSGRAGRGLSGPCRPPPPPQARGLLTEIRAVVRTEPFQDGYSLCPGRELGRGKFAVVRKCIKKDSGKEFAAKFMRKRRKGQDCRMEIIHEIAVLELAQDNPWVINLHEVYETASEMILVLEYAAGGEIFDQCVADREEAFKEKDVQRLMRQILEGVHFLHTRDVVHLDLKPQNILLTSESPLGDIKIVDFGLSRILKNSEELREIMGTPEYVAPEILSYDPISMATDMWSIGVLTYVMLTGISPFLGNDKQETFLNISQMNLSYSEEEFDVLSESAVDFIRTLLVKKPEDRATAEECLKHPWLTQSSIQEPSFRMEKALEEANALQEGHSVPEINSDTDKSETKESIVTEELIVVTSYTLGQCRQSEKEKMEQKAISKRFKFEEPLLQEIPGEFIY
Description: as §1

BLK = BLK (Homo sapiens, UniProt P51451)
BLK, sequence (P51451 whole entry): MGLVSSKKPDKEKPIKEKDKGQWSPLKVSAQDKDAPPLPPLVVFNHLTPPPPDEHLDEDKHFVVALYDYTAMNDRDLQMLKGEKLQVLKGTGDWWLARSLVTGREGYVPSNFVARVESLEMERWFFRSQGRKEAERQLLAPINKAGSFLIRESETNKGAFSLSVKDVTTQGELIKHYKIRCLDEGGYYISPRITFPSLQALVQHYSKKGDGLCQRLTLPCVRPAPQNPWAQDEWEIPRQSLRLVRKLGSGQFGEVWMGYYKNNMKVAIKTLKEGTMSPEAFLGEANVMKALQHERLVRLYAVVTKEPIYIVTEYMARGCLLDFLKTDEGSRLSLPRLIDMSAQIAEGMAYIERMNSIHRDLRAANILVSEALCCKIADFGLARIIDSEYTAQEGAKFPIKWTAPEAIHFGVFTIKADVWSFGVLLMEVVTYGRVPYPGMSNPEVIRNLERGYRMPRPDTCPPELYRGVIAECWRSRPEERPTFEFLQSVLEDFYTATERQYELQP
Description: as §1

NUAK1 (ARK5) = molecular target: T2, NUAK1 (ARK5) (Homo sapiens, UniProt O60285)
T2 sequence (O60285 1-661): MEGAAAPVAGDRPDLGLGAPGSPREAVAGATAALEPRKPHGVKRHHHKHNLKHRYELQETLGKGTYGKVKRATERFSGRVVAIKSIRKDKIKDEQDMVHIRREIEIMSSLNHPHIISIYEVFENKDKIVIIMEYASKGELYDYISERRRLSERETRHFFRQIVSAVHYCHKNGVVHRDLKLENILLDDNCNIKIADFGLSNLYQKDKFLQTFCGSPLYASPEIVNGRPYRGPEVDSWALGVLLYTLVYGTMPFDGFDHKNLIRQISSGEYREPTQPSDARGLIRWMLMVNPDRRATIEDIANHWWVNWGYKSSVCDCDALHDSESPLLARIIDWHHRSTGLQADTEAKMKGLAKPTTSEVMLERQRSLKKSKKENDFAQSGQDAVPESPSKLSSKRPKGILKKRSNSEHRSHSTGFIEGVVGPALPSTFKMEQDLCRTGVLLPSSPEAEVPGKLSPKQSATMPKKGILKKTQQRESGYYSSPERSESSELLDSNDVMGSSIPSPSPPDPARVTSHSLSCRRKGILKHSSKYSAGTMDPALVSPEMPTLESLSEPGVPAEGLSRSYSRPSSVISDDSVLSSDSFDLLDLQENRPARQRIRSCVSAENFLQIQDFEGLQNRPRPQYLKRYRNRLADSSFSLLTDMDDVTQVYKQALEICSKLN
Description: as §1

NTRK3 (TRKC) = NTRK3 (TRKC) (Homo sapiens, UniProt Q16288)
NTRK3 (TRKC), sequence (Q16288 32-839): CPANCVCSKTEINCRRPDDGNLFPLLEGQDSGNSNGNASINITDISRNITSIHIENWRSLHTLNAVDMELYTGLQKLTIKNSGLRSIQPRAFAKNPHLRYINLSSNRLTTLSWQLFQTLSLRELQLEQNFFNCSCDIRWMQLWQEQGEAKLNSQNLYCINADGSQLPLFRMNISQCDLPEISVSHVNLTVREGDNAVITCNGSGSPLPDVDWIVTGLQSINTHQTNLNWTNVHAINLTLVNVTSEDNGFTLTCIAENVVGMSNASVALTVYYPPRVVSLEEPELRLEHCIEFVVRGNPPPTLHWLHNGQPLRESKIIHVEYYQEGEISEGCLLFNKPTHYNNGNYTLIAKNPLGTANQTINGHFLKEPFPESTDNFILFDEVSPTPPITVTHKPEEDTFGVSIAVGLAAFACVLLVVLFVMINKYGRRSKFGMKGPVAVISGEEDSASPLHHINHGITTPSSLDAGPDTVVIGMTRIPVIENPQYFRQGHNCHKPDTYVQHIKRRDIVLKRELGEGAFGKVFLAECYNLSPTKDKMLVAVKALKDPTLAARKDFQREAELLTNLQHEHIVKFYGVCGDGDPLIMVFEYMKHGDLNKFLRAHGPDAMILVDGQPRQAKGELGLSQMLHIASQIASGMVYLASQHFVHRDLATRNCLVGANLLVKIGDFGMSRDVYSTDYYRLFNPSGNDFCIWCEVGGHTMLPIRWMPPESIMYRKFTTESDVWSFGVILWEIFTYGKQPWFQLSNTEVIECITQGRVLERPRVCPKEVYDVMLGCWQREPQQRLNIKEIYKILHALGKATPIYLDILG
Description: as §1

[3] = 1 h, 1 μM WEL028, 1 h preincubation
[4] = read-out: Inhibition at 1 µM (%)

SMILES: C#CCOc1ccc(Nc2ncc(Cl)c(Nc3ccccc3NC(=O)C=C)n2)c(OC)c1 [Compound 6]
- Apparent fold selectivity (KDR (VEGFR2) [1]): 153 fold
- IC50 (KDR (VEGFR2) [2]): 631 nM
- inhibition at 1 µM (KDR (VEGFR2) [2]; [3]): 67%
- inhibition at 10 µM (KDR (VEGFR2) [2]; 1 h, log[inhibitor] (M) -5.00, ZLYTE, ATP Km app): 101%
- inhibition at 3.31 µM (KDR (VEGFR2) [2]; 1 h, log[inhibitor] (M) -5.48, ZLYTE, ATP Km app): 99%
- inhibition at 1.12 µM (KDR (VEGFR2) [2]; 1 h, log[inhibitor] (M) -5.95, ZLYTE, ATP Km app): 70%
- inhibition at 0.372 µM (KDR (VEGFR2) [2]; 1 h, log[inhibitor] (M) -6.43, ZLYTE, ATP Km app): 37%
- inhibition at 0.123 µM (KDR (VEGFR2) [2]; 1 h, log[inhibitor] (M) -6.91, ZLYTE, ATP Km app): 26%
- inhibition at 0.04074 µM (KDR (VEGFR2) [2]; 1 h, log[inhibitor] (M) -7.39, ZLYTE, ATP Km app): 16%
- inhibition at 0.00151 µM (KDR (VEGFR2) [2]; 1 h, log[inhibitor] (M) -8.82, ZLYTE, ATP Km app): 17%
- inhibition at 0.00049 µM (KDR (VEGFR2) [2]; 1 h, log[inhibitor] (M) -9.31, ZLYTE, ATP Km app): 17%
- Inhibition at 1 µM (%) (KDR (VEGFR2) [2]; KDR (VEGFR2), 1 µM, ZLYTE, ATP Km app, listed as WEL028, 1 µM): 65%
- inhibition at 1 µM (KDR (VEGFR2) [2]; read-out: Inhibition at 1 µM (%), KDR (VEGFR2), 1 µM, ZLYTE, ATP Km app): 69%
- inhibition at 1 µM (IKBKB (IKK beta); 1 h): 1%
- inhibition at 1 µM (IKBKB (IKK beta); [4]): 1%
- inhibition at 1 µM (MST4; [3]): 19%
- Inhibition at 1 µM (%) (MST4; MST4, 1 µM, ZLYTE, ATP Km app, listed as WEL028, 1 µM): 18%
- inhibition at 1 µM (MST4; read-out: Inhibition at 1 µM (%), MST4, 1 µM, ZLYTE, ATP Km app): 21%
- inhibition at 1 µM (CDK16 (PCTK1)/cyclin Y; [3]): 0%
- Inhibition at 1 µM (%) (CDK16 (PCTK1)/cyclin Y; CDK16 (PCTK1)/cyclin Y, 1 µM, LanthaScreen Binding, listed as WEL028, 1 µM): -1%
- inhibition at 1 µM (ACVRL1 (ALK1); [3]): 6%
- Inhibition at 1 µM (%) (ACVRL1 (ALK1); ACVRL1 (ALK1), 1 µM, LanthaScreen Binding): 12%
- inhibition at 1 µM (ADCK3; 1 h): 2%
- inhibition at 1 µM (ADCK3; [4]): 2%
- Inhibition (%) (CDK11/cyclin C; 1 μM WEL028, 1 h preincubation): 5%
- Inhibition at 1 µM (%) (CDK11/cyclin C): 2%
- Inhibition at 1 µM (%) (CDK11/cyclin C; listed as WEL028, 1 µM): 7%
- Inhibition at 1 µM (%) (STK17A (DRAK1); 1 µM, LanthaScreen Binding, listed as WEL028, 1 µM): 10%
- inhibition at 1 µM (STK17A (DRAK1); [3]): 9%
- inhibition at 1 µM (STK17A (DRAK1); read-out: Inhibition at 1 µM (%), 1 µM, LanthaScreen Binding): 8%
- inhibition at 1 µM (BLK; [3]): 0%
- Inhibition at 1 µM (%) (BLK; BLK, 1 µM, ZLYTE, ATP Km app, listed as WEL028, 1 µM): 4% and -5%
- Inhibition (%) (NUAK1 (ARK5); 1 μM WEL028, 1 h preincubation): 35%
- Inhibition at 1 µM (%) (NUAK1 (ARK5); NUAK1 (ARK5), 1 µM, Adapta, ATP Km app, listed as WEL028, 1 µM): 41%
- inhibition at 1 µM (NUAK1 (ARK5); read-out: Inhibition at 1 µM (%), NUAK1 (ARK5), 1 µM, Adapta, ATP Km app): 30%
- inhibition at 1 µM (NTRK3 (TRKC); [3]): 4%
- Inhibition at 1 µM (%) (NTRK3 (TRKC); NTRK3 (TRKC), 1 µM, ZLYTE, ATP Km app, listed as WEL028, 1 µM): 0% and 8%
